Several values for one entry are separate records, joined by “and”; a condition that tells them apart may be missing. Identical values can stand only once. Records with an inconclusive call do not appear. *1 amine or outer side, *2 acyl side, *3 side chain or, on linkers, in order; H or OH if unused. Where a SMILES comes first, the peptide text is derived from it. Bridges are numbered along the chain shown (N, C = ends). Roman numbers before positions name the chains, in order. [ ]: non-standard residue; d: D form. Actinocin(9to1) = Cc1c2oc3c(C)ccc(C(=O)[*:1])c3nc-2c(C(=O)[*:2])c(N)c1=O; aThr = C[C@H](O)[C@H](N)C(=O)O; NMeV = CN[C@H](C(=O)O)C(C)C; Sar = CNCC(=O)O
Test system: MX-1 breast xenograft, nude mice, tumor weight T/C
Experiment: NCI In Vivo Anticancer Drug Screen. Data for tumor model Human Mammary Carcinoma MX-1 Xenograft (intrarenal inoculation) in NU/NU Swiss (nude) mice
Details: endpoint: mean tumor weight change, higher = larger tumour
In short: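 Antitumour effect measured in vivo against vehicle controls, expressed as T/C.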

[1] = dose: 150.0 mg/kg/injection, schedule: Q04DX003 (sc), vehicle: saline with Tween-80
[2] = dose: 300.0 mg/kg/injection, schedule: Q04DX003 (sc), vehicle: saline with Tween-80
[3] = dose: 600.0 mg/kg/injection, schedule: Q04DX003 (sc), vehicle: saline with Tween-80
[4] = dose: 1200.0 mg/kg/injection, schedule: Q04DX003 (sc), vehicle: saline with Tween-80

With `Nc1nc(N)c2cc(S(=O)(=O)c3ccccc3)ccc2n1` the T/C [1] was 160 % of control, the T/C [2] was 171 % of control and the T/C [3] was 185 % of control. For the same compound, the T/C [4] was 152 % of control.
With `COc1cc2c(c(OC)c1OC)-c1ccc(OC)c(=O)cc1[C@@H](NC(=O)CCl)CC2` the T/C (dose: 1.25 mg/kg/injection, schedule: Q04DX003 (sc), vehicle: saline with Tween-80) was 90 % of control, the T/C (dose: 2.5 mg/kg/injection, schedule: Q04DX003 (sc), vehicle: saline with Tween-80) was 64 % of control and the T/C (dose: 5.0 mg/kg/injection, schedule: Q04DX003 (sc), vehicle: saline with Tween-80) was 21 % of control. The T/C (dose: 10.0 mg/kg/injection, schedule: Q04DX003 (sc), vehicle: saline with Tween-80) was -92 % of control.
For `NC(Cc1ccc(N(CCCl)CCCl)cc1)C(=O)O` (centres undefined), the T/C (dose: 10.0 mg/kg/injection, schedule: Q04DX003 (sc), vehicle: Klucel (hydroxypropylcellulose) (HPC)) was -99 % of control, the T/C (dose: 20.0 mg/kg/injection, schedule: Q04DX003 (sc), vehicle: Klucel (hydroxypropylcellulose) (HPC)) was -100 % of control and the T/C (dose: 40.0 mg/kg/injection, schedule: Q04DX003 (sc), vehicle: Klucel (hydroxypropylcellulose) (HPC)) was -99 % of control.
For `CC(=O)OC1=NC(C)c2c1cc(OC(C)=O)[nH]c2=O` (centres undefined), the T/C (dose: 300.0 mg/kg/injection, schedule: Q04DX003 (sc), vehicle: Klucel (hydroxypropylcellulose) (HPC)) was 102 % of control, the T/C (dose: 600.0 mg/kg/injection, schedule: Q04DX003 (sc), vehicle: Klucel (hydroxypropylcellulose) (HPC)) was 91 % of control and the T/C (dose: 1200.0 mg/kg/injection, schedule: Q04DX003 (sc), vehicle: Klucel (hydroxypropylcellulose) (HPC)) was 70 % of control.
With `NC(=S)N/N=C/c1ccc(OC(=O)COc2ccc(Cl)cc2)cn1` the T/C [2] was 112 % of control, the T/C [3] was 88 % of control and the T/C [4] was 92 % of control.
With `CO[C@@]12[C@H](COC(N)=O)C3=C(C(=O)C(C)=C(N)C3=O)N1C[C@@H]1N[C@@H]12` the T/C (dose: 3.0 mg/kg/injection, schedule: Q04DX003 (sc), vehicle: saline) was -100 % of control and the T/C (dose: 6.0 mg/kg/injection, schedule: Q04DX003 (sc), vehicle: saline) was -88 % of control and -100 % of control (2×).
`Cc1c2oc3c(C)ccc(C(=O)N[C@@H]4C(=O)N[C@H](C(C)C)C(=O)N5CCC[C@H]5C(=O)N(C)CC(=O)N(C)[C@@H](C(C)C)C(=O)O[C@H]4C)c3nc-2c(C(=O)N[C@@H]2C(=O)N[C@H](C(C)C)C(=O)N3CCC[C@H]3C(=O)N(C)CC(=O)N(C)[C@@H](C(C)C)C(=O)O[C@H]2C)c(N)c1=O` (I: [aThr][dV]P[Sar][NMeV] / II: [aThr][dV]P[Sar][NMeV]; ester I:1-I:C, II:1-II:C; linker I:N-II:N via Actinocin(9to1)) was tested, and the T/C (dose: 0.25 mg/kg/injection, schedule: Q04DX003 (sc), vehicle: saline) was 34 % of control, the T/C (dose: 0.5 mg/kg/injection, schedule: Q04DX003 (sc), vehicle: saline) was 11 % of control and the T/C (dose: 1.0 mg/kg/injection, schedule: Q04DX003 (sc), vehicle: saline) was -46 % of control. The T/C (dose: 50.0 micrograms/kg/injection, schedule: Q01DX010 (sc), vehicle: saline) was 76 % of control, the T/C (dose: 100.0 micrograms/kg/injection, schedule: Q01DX010 (sc), vehicle: saline) was 23 % of control and 28 % of control and 33 % of control and the T/C (dose: 200.0 micrograms/kg/injection, schedule: Q01DX010 (sc), vehicle: saline) was 1 % of control and 18 % of control.
With `BrC1CC(Br)c2c1c1c(c3c2C(Br)CC3Br)C(Br)CC1Br` (centres undefined) the T/C (dose: 300.0 mg/kg/injection, schedule: Q04DX003 (sc), vehicle: water) was 92 % of control, the T/C (dose: 600.0 mg/kg/injection, schedule: Q04DX003 (sc), vehicle: water) was 104 % of control and the T/C (dose: 1200.0 mg/kg/injection, schedule: Q04DX003 (sc), vehicle: water) was 120 % of control. For the same compound, the T/C (dose: 2400.0 mg/kg/injection, schedule: Q04DX003 (sc), vehicle: water) was 50 % of control.
In the case of `CN(C)CCN1C(=O)c2cccc3cc(N)cc(c23)C1=O`, the T/C (dose: 16.0 mg/kg/injection, schedule: Q04DX003 (sc), vehicle: saline with Tween-80) is reported as 80 % of control and the T/C (dose: 32.0 mg/kg/injection, schedule: Q04DX003 (sc), vehicle: saline with Tween-80) is reported as 78 % of control.
With `O=C1CN(Cc2ccc3c(c2)OCO3)NO1` the T/C [1] was 64 % of control, the T/C [2] was 42 % of control and the T/C [3] was 39 % of control.
`O=C1c2ccccc2C(=O)c2c3c(cc(NCCNCCO)c21)N(CCO)CCN3` was tested, and the T/C (dose: 12.5 mg/kg/injection, schedule: Q04DX003 (sc), vehicle: DMSO) was 95 % of control, the T/C (dose: 25.0 mg/kg/injection, schedule: Q04DX003 (sc), vehicle: DMSO) was 101 % of control and the T/C (dose: 50.0 mg/kg/injection, schedule: Q04DX003 (sc), vehicle: DMSO) was 77 % of control. The T/C (dose: 100.0 mg/kg/injection, schedule: Q04DX003 (sc), vehicle: DMSO) was 111 % of control and the T/C (dose: 200.0 mg/kg/injection, schedule: Q04DX003 (sc), vehicle: DMSO) was 151 % of control.
